Measurements: patent US20110160196A1, “FACTOR XA INHIBITORS” (Millennium Pharmaceuticals, Inc., priority 2007, published 2011)

Molecular target: T1, human plasma protein factor Xa (Homo sapiens, UniProt P00742)
T1 construct: The human plasma protein factor Xa was purchased; purchased Haematologic Technologies (Essex Junction, Vt.); host or cells: human plasma
Assay: Factor Xa IC50 determination (cleavage of paranitroanilide substrate S-2765)
Type: biochemical
Details: factor Xa 1 nM, S-2765 100 μM, Tris buffered saline pH 7.4, read at 405 nm
From the text: This example illustrates methods for evaluating the compounds of the invention, along with results obtained for such assays. The in vitro and in vivo human Factor Xa activities of the inventive compounds can be determined by various procedures known in the art, such as a test for their ability to inhibit the activity of human plasma Factor Xa. […] The IC50 value is the concentration (in nM) of the compound required to provide 50% inhibition of human Factor Xa proteolytic activity.
An in vitro assay for detecting and measuring inhibition activity against Factor Xa is as follows:
The substrate S-2765 (Z-D-Arg-Gly-Arg-pNA.HCl) was obtained from Diapharma (West Chester, Ohio).
The human plasma protein factor Xa was purchased from Haematologic Technologies (Essex Junction, Vt.).
All assays, which are performed in 96-well microtiter plates, measure proteolytic activity of the enzyme (factor Xa) by following cleavage of a paranitroanilide peptide substrate. The assay buffer used for proteolytic assays was Tris buffered saline (20 mM Tris, 150 mM NaCl, 5 mM CaCl2, 0.1% Bovine serum albumin (BSA), 5% Dimethly Sulfoxide (DMSO) pH 7.4). In a 96-well microtiter plate, inhibitor was serially diluted to give a range of final concentrations from 0.01 nM to 10 μM. Duplicate sets of wells were assayed and control wells without inhibitor were included. Enzyme was added to each well, (factor Xa concentration=1 nM), the plate was shaken for 5 seconds and then incubated for 5 minutes at room temperature. S-2765 was added (100 μM final) and the plate was shaken for 5 seconds (final volume in each well was 200 μl). The degree of substrate hydrolysis was measured at 405 nm on a Thermomax plate reader (Molecular Devices, Sunnyvale, Calif.) for 2 minutes. The initial velocities of substrate cleavage (mOD/min), for each range of inhibitor concentrations, were fitted to a four parameter equation using Softmax data analysis software. The parameter C, derived from the resulting curve-fit, corresponded to the concentration for half maximal inhibition (IC50).

T1 sequence (P00742 235-488 limits assumed): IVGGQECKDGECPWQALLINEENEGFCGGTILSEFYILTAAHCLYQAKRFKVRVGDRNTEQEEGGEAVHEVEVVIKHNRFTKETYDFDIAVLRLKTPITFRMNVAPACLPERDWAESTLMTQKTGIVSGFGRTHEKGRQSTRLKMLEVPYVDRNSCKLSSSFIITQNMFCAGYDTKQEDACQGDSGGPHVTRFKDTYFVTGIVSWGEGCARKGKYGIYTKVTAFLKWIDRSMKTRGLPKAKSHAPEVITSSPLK
T1 sequence (P00742 41-179 partner limits assumed): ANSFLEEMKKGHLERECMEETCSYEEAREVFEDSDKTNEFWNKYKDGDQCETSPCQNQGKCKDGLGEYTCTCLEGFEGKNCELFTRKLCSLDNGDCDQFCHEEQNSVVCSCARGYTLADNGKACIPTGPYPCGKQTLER

Row | Compound | IC50 [nM]
1 | O=C(NCc1cn(-c2ccc(-n3ccccc3=O)cc2-c2ccncc2)nn1)c1ccc(Cl)s1 [Compound 125, 5-Chloro-N-((1-(4-(2-oxopyridin-1(2H)-yl)-2-(pyridin-4-yl)phenyl)-1H-1,2,3-triazol-4-yl)methyl)thiophene-2-carboxamide] | ≤ 100
2 | O=C(NCc1cn(-c2ccc(-n3ccccc3=O)cc2Oc2ccccn2)nn1)c1ccc(Cl)s1 [Compound 151, 5-Chloro-N-((1-(4-(2-oxopyridin-1(2H)-yl)-2-(pyridin-2-yloxy)phenyl)-1H-1,2,3-triazol-4-yl)methyl)thiophene-2-carboxamid] | ≤ 100
3 | CN(C)c1cc(-c2cc(-n3ccccc3=O)ccc2-n2cc(CNC(=O)c3ccc(Cl)s3)nn2)ccn1 [Compound 140, 5-Chloro-N-((1-(2-(2-(dimethylamino)pyridin-4-yl)-4-(2-oxopyridin-1(2H)-yl)phenyl)-1H-1,2,3-triazol-4-yl)methyl)thiophene-2-carboxamide] | ≤ 100
4 | O=C(O)COc1cc(-n2ccccc2=O)ccc1-n1nnc(CNC(=O)c2ccc(Cl)s2)c1I [Compound 152, 2-(2-(4-((5-Chlorothiophene-2-carboxamido)methyl)-5-iodo-1H-1,2,3-triazol-1-yl)-5-(2-oxopyridin-1(2H)-yl)phenoxy)acetic acid] | ≤ 100
5 | O=C(NCc1cn(-c2ccc(-n3ccccc3=O)cc2C(=O)Nc2ccncc2)nn1)c1ccc(Cl)s1 [Compound 118, 5-Chloro-N-((1-(4-(2-oxopyridin-1(2H)-yl)-2-(pyridin-4-ylcarbamoyl)phenyl)-1H-1,2,3-triazol-4-yl)methyl)thiophene-2-carboxamide] | 100 to 500
6 | O=C(NCc1cn(-c2ccc(-n3ccccc3=O)cc2-c2ccc(Cl)nc2)nn1)c1ccc(Cl)s1 [Compound 135, 5-Chloro-N-((1-(2-(6-chloropyridin-3-yl)-4-(2-oxopyridin-1(2H)-yl)phenyl)-1H-1,2,3-triazo1-4-yl)methyl)thiophene-2-carboxamide] | ≤ 100
7 | COCCNC(=O)c1cc(-n2ccccc2=O)ccc1-n1cc(CNC(=O)c2ccc(Cl)s2)nn1 [Compound 106, N-((1-(2-((2-Methoxyethyl)carbamoyl)-4-(2-oxopyridin-1(2H)-yl)phenyl)-1H-1,2,3-triazol-4-yl)methyl)-5-chlorothiophene-2-carboxamide] | 100 to 500
8 | O=C(NCc1cn(-c2ccc(-n3ccccc3=O)cc2-c2ccc(O)nc2)nn1)c1ccc(Cl)s1 [Compound 142, 5-Chloro-N-((1-(2-(6-hydroxypyridin-3-yl)-4-(2-oxopyridin-1(2H)-yl)phenyl)-1H-1,2,3-triazol-4-yl)methyl)thiophene-2-carboxamide] | ≤ 100
9 | O=C(NCc1cn(-c2ccc(-n3ccccc3=O)cc2Oc2ccncc2)nn1)c1ccc(Cl)s1 [Compound 63, 5-Chloro-N-((1-(4-(2-oxopyridin-1(2H)-yl)-2-(pyridin-4-yloxy)phenyl)-1H-1,2,3-triazol-4-yl)methyl)thiophene-2-carboxamide] | ≤ 100
10 | CNc1cc(-c2cc(-n3ccccc3=O)ccc2-n2cc(CNC(=O)c3ccc(Cl)s3)nn2)ccn1 [Compound 141, 5-Chloro-N-((1-(2-(2-(methylamino)pyridin-4-yl)-4-(2-oxopyridin-1(2H)-yl)phenyl)-1H-1,2,3-triazol-4-yl)methyl)thiophene-2-carboxamide] | ≤ 100
11 | NC(=O)c1cc(-n2ccccc2=O)ccc1-n1cc(CNC(=O)c2ccc(Cl)s2)nn1 [Compound 101, N-((1-(2-Carbamoyl-4-(2-oxopyridin-1(2H)-yl)phenyl)-1H-1,2,3-triazol-4-yl)methyl)-5-chlorothiophene-2-carboxamide] | ≤ 100
12 | Nc1ccc(-c2cc(-n3ccccc3=O)ccc2-n2cc(CNC(=O)c3ccc(Cl)s3)nn2)cn1 [Compound 144, N-((1-(2-(6-Aminopyridin-3-yl)-4-(2-oxopyridin-1(2H)-yl)phenyl)-1H-1,2,3-triazol-4-yl)methyl)-5-chlorothiophene-2-carboxamide] | ≤ 100
13 | O=C(NCc1cn(-c2ccc(-n3ccccc3=O)cc2N2CCC(C(=O)O)CC2)nn1)c1ccc(Cl)s1 [Compound 24, 1-(2-(4-((2-Chlorothiophene-5-carboxamido)methyl)-1H-1,2,3-triazol-1-yl)-5-(2-oxopyridin-1(2H)-yl)phenyl)piperidine-4-carboxylic acid] | ≤ 100
14 | O=C(NCc1cn(-c2ccc(-n3ccccc3=O)cc2Oc2cccnc2)nn1)c1ccc(Cl)s1 [Compound 64, 5-Chloro-N-((1-(4-(2-oxopyridin-1(2H)-yl)-2-(pyridin-3-yloxy)phenyl)-1H-1,2,3-triazol-4-yl)methyl)thiophene-2-carboxamide] | ≤ 100
15 | CS(=O)(=O)c1cc(-n2ccccc2=O)ccc1-n1cc(CNC(=O)c2ccc(Cl)s2)nn1 [Compound 52, 5-Chloro-N-((1-(2-(methylsulfonyl)-4-(2-oxopyridin-1(2H)-yl)phenyl)-1H-1,2,3-triazol-4-yl)methyl)thiophene-2-carboxamide] | ≤ 100

More lines, now with the values ahead:

Row | IC50 [nM] | Compound
16 | ≤ 100 | O=C(NCc1cn(-c2ccc(-n3ccccc3=O)cc2OCc2nnn[nH]2)nn1)c1ccc(Cl)s1 [Compound 98, N-((1-(2-((1H-Tetrazol-5-yl)methoxy)-4-(2-oxopyridin-1(2H)-yl)phenyl)-1H-1,2,3-triazol-4-yl)methyl)-5-chlorothiophene-2-carboxamide]
17 | ≤ 100 | CCOc1cc(-n2ccccc2=O)ccc1-n1cc(CNC(=O)c2ccc(Cl)s2)nn1 [Compound 164, 5-Chloro-N-((1-(2-ethoxy-4-(2-oxopyridin-1(2H)-yl)phenyl)-1H-1,2,3-triazol-4-yl)methyl)thiophene-2-carboxamide]
18 | ≤ 100 | CNc1cc(-n2ccccc2=O)ccc1-n1cc(CNC(=O)c2ccc(Cl)s2)nn1 [Compound 1, 5-Chloro-N-((1-(2-(methylamino)-4-(2-oxopyridin-1(2H)-yl)phenyl)-1H-1,2,3-triazol-4-yl)methyl)thiophene-2-carboxamide]
19 | ≤ 100 | O=C(NCc1cn(-c2ccc(-n3ccccc3=O)cc2OCc2cscn2)nn1)c1ccc(Cl)s1 [Compound 171, 5-Chloro-N-((1-(4-(2-oxopyridin-1(2H)-yl)-2-(thiazol-4-ylmethoxy)phenyl)-1H-1,2,3-triazol-4-yl)methyl)thiophene-2-carboxamide]
20 | ≤ 100 | O=C(NCc1cn(-c2ccc(-n3ccccc3=O)cc2OCCCN2CCOCC2)nn1)c1ccc(Cl)s1 [Compound 95, 5-Chloro-N-((1-(2-(3-morpholinopropoxy)-4-(2-oxopyridin-1(2H)-yl)phenyl)-1H-1,2,3-triazol-4-yl)methyl)thiophene-2-carboxamide]
21 | ≤ 100 | O=C(NCc1cn(-c2ccc(-n3ccccc3=O)cc2OC[C@H](O)CO)nn1)c1ccc(Cl)s1 [Compound 78, 5-Chloro-N-((1-(2-((R)-2,3-dihydroxypropoxy)-4-(2-oxopyridin-1(2H)-yl)phenyl)-1H-1,2,3-triazol-4-yl)methyl)thiophene-2-carboxamide]
22 | ≤ 100 | O=C1CN(Cc2cc(-n3ccccc3=O)ccc2-n2cc(CNC(=O)c3ccc(Cl)s3)nn2)CCN1 [Compound 161, 5-Chloro-N-((1-(2-((3-oxopiperazin-1-yl)methyl)-4-(2-oxopyridin-1(2H)-yl)phenyl)-1H-1,2,3-triazol-4-yl)methyl)thiophene-2-carboxamide]
23 | ≤ 100 | CS(=O)(=O)CCOc1cc(-n2ccccc2=O)ccc1-n1cc(CNC(=O)c2ccc(Cl)s2)nn1 [Compound 80, 5-Chloro-N-((1-(2-(2-(methylsulfonyl)ethoxy)-4-(2-oxopyridin-1(2H)-yl)phenyl)-1H-1,2,3-triazol-4-yl)methyl)thiophene-2-carboxamide]
24 | ≤ 100 | Cc1nc(COc2cc(-n3ccccc3=O)ccc2-n2cc(CNC(=O)c3ccc(Cl)s3)nn2)cs1 [Compound 172, 5-Chloro-N-((1-(2-((2-methylthiazol-4-yl)methoxy)-4-(2-oxopyridin-1(2H)-yl)phenyl)-1H-1,2,3-triazol-4-yl)methyl)thiophene-2-carboxamide]
25 | ≤ 100 | CC(=N)N1CCN(c2cc(-n3ccccc3=O)ccc2-n2cc(CNC(=O)c3ccc(Cl)s3)nn2)CC1 [Compound 14, 5-Chloro-N-((1-(2-(4-(1-iminoethyl)piperazin-1-yl)-4-(2-oxopyridin-1(2H)-yl)phenyl)-1H-1,2,3-triazol-4-yl)methyl)thiophene-2-carboxamide]
26 | ≤ 100 | O=C(NCc1cn(-c2ccc(-n3ccccc3=O)cc2N2CCCCC2)nn1)c1ccc(Cl)s1 [Compound 4, 5-Chloro-N-((1-(4-(2-oxopyridin-1(2H)-yl)-2-(piperidin-1-yl)phenyl)-1H-1,2,3-triazol-4-yl)methyl)thiophene-2-carboxamide]
27 | ≤ 100 | O=C(NCc1cn(-c2ccc(-n3ccccc3=O)cc2OC[C@@H](O)CO)nn1)c1ccc(Cl)s1 [Compound 79, 5-Chloro-N-((1-(2-((S)-2,3-dihydroxypropoxy)-4-(2-oxopyridin-1(2H)-yl)phenyl)-1H-1,2,3-triazol-4-yl)methyl)thiophene-2-carboxamide]
